Laboratory results published in patent publication US20140155445A1, “Compounds and Methods for Treating Cancer and Diseases of the Central Nervous System” (Osta Biotechnologies Inc., priority 2007, published 2014).
“Also recorded” adds a separate entry of the source.

Columns and labels:
[1] = tested on: SKMEL 28-V+ cells (human melanoma); assay: Melanoma model SKMEL-V+ in SCID mice (combination study); assay type: in vivo; details: QC-56 60 mg/kg/ip; Dacarbazine 55 mg/kg
Description: SKMEL 28-V+ cells (human melanoma). These cells were originally from the ATCC and then engineered to overexpress VEGF. […] The cells were tested to be free of mycoplasma.
Control groups received the vehicle alone.

[2] = tested on: SKMEL-V human melanoma cells; assay: Human melanoma model SKMEL-V+ in SCID mice (pilot study); assay type: in vivo
Excerpt: Human melanoma cells (“SKMEL-V cells”) were derived from SKMEL-24 cells (ATCC) by over expression of mouse VEGF.
Only those cells with >95% viability were used for in-vivo studies.
Once tumors reached a size of approximately 0.7 cm^3, they were removed under sterile condition, sliced into small pieces under a stereo-microscope. Each tissue piece was then reinoculated subcutaneously. Only pieces of approximately the same size and with no signs of necrosis were used.
At the end of the experiment, mice were sacrificed by cervical dislocation and full autopsies were conducted. A picture was taken of tumors from randomly selected mice. The tumors were then fixed in formalin for pathology examination.

[3] = Pharmacokinetic evaluation of QC-56 in mouse brain; assay type: in vivo; details: brain tissue, i.v. tail vein injection
Excerpt: Regular male CD1 mice, 6 weeks old, were obtained from Charles River Laboratories, St. Zotique, PQ, Canada. The mice weighed 22-28 g. The experiments were approved by the Animal Care Committee, McGill University, Montreal, Quebec. The animals were housed in individual cages and were fed standard rodent chow and water ad libitum. […] In this case, mice were anesthetized using isoflurane-based system (DISPOMED, MODUFLEX COMPACT NRB, 3975-0800-000). […] Serum was collected after the samples were centrifuged 2200×, 4° C. for 20 minutes and stored at −80° C. until analysis. For the brain tissue collection, skin of mice was removed and brain was carefully dissected out from the skull, transferred into a Petri dish, briefly washed with ice-cold phosphate-buffered saline (PBS), and immediately stored at −80° C. until further analysis.
The assay of QC-56 in mouse brain samples was carried out using a qualified LC/MS/MS assay method.

[4] = target: T1, human HO-1 (hHO-1) in transfected astroglia (Homo sapiens, UniProt P09601); assay: HO enzyme activity (bilirubin formation) in hHO-1-transfected astrocytes; assay type: cell-based; details: 6.5 μM
T1 construct: containing the entire protein-coding region (866 bp) of the human HO-1 gene; expressed in transfected cells; host or cells: primary rat astrocytes, transient transfection with pcDNA3.1/Zeo.CMV.Flag.hHO-1 (Lipofectamine 2000)
T1 sequence (P09601 1-288): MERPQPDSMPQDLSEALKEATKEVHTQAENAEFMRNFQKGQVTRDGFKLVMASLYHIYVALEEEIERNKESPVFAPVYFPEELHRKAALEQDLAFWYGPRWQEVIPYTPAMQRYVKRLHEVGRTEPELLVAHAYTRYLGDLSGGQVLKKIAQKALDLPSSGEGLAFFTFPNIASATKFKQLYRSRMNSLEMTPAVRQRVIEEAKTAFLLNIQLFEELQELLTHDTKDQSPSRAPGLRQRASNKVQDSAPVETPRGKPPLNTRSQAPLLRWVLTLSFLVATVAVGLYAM
Description: Upon reaching >90% confluence, 1×10^6 cells were transiently transfected with 4.0 μg of plasmid DNA-Lipofectamine 2000 complex using Lipofectamine 2000 method according to manufacturer instructions (Invitrogen). […] 12 μg of plasmid DNA and 16 μl of Lipofectamine 2000 reagent were diluted in 1.5 mL opti-MEM I reduced serum medium and incubated for 5 minutes at room temperature with gentle mixing. The two solutions were combined, incubated at room temperature for 20 minutes to promote formation of DNA-lipid complexes and administered to the cells. 2 mL opti-MEM I reduced serum medium was added to the flasks to ensure coverage of the monolayer by the transfection mixture. Following incubation for 6 hours at 37° C., the transfection mixture was replaced with 10 mL of complete media without antibiotics.
A young adult male rat was gas-anesthetized, laid on ice and systemically perfused with ice-cold 0.9% NaCl to get rid of all blood from liver. The liver was then excised on ice and transferred to a cold room (4° C.) and cut into small pieces in cold 0.9% NaCl (3 mL per gram of tissue) with surgical scissors in and placed in a 50 mL tube. The tissue chunks were homogenized with an electric tissue homogenizer and centrifuged at 150×g for […] at 4° C. Similarly, all of the following steps, including centrifugations, were performed at 4° C. The supernatant was centrifuged at 18,000×g for 10 min and further at 30,000×g for 30 min. A saturated solution of ammonium sulfate was added to the 30,000×g supernatant to attain 40% saturation and placed on ice for 10 min. The mixture was centrifuged at 10,000×g for 10 min and supernatant was recovered and transferred to a fresh tube. Sixty percent of saturation was achieved by adding saturation solution of ammonium sulfate to the supernatant. The mixed solution was centrifuged again at 10,000×g for 10 min and […]. […] The dialysate was centrifuged at 10,000 g for 10 min and pellet was discarded. The protein concentration of the supernatant was measured with Bradford reagent (BioRad laboratories, Hercules, Calif.) and adjusted to 10 mg/mL with 0.01 M KPO4, pH7.4. The supernatant was aliquoted and stored at −20° C. ready for use.
Cytosol extracts were prepared for HO activity measurement by the method of Ryter (Ryter, Kvam, Tyrrell 2000). Astroglial monolayers were washed with ice-cold PBS and scraped in ice-cold PBS-EDTA (1 mM, pH 8.0) containing 50 μg/mL protease inhibitor (AEBSF), centrifuged at 150×g at 4° C. and resuspended in 20 mM Tris-HCl (pH 7.4) and 0.25 M sucrose containing protease inhibitors. Cell suspensions were sonicated on ice 2×15 s at 20 W and centrifuged for 20 min at 4° C. at 15,000×g. Protein concentration of supernatant was measured with Bradford method. […] Reaction mixtures were incubated at 37° C. in the dark for 60 min with hard vortex every 10 min. […] HO activity was calculated as nanomoles bilirubin per milligram protein per min, assuming an extinction coefficient of 40/mM/cm in chloroform (see FIG. 8).
Cells were rinsed twice with cold PBS (pH 7.4) and scraped in iced lysis buffer consisting of 1% Nonidet P-40, 50 mM Tris.HCl (pH 7.4), 30 mM NaCl, 25 mM β-glycerophosphate, 10 mM EDTA, 10 mM EGTA, 1 mM MgCl2, and protease inhibitors (10 mM sodium fluoride, 50 μg/mL AEBBSF, 5 μg/mL leupeptin, 5 μg/mL pepstatin, 5 μg/mL aprotinin). […] Protein contents were determined using the Bradford method. […]

## Brc1ccc(CCC2(Cn3ccnc3)OCCO2)cc1.Cl [QC-56, 1-((2-(2-(4-Bromophenyl)ethyl)-1,3-dioxolan-2-yl)methyl)-1H-imidazole hydrochloride]
[1]
  inhibition of tumor growth compared to vehicle alone: approximately 42%
  tumor size on the day of sacrifice: 1.03±0.16 cm^3
[2]; 30 and 60 mg/kg i.p.
  anti-tumor activity: clear anti-tumor activity
[2]; QC-56 30 mg/kg (P<0.03) and 60 mg/kg (P<0.02)
  tumor volumes vs vehicle alone: statistically significantly smaller
[2]; QC-56 30 and 60 mg/kg vs dacarbazine 50 mg/kg
  potency compared with dacarbazine: significantly more potent than dacarbazine
[3]
  time of maximal brain concentration: 1 min
[3]; male CD-1 mice
  AUC0→3 hrs: 60.3 µg·h/g
  AUC0→inf: 158 µg·h/g
  T1/2z: 4.30 h
[3]; male, CD-1, mouse, iv, read-out: brain concentration at 180 min post-dose
  concentration at 180 min: 15800 ± 800 ng/g
[3]; mouse, iv, male CD-1 mice
  Cmax: 50200 ± 3200 ng/g
[4]; 18 h, hHO-1-transfected cells, hydrochloride
  HO activity in HO-1-transfected astroglia: suppressed to levels akin to those of non-transfected and sham-transfected controls; also recorded: significantly attenuated; also recorded: significantly decreased
[4]; transiently transfected cells
  expression level of flag-tagged HO-1 protein: without affecting the expression level of flag-tagged HO-1 protein
